In patent US20060110790A1, “Expression system for large functional proteins” (priority 2002, published 2006):

Key:
ABCR = target: T1, ABCR (Homo sapiens, UniProt P78363); test: 8-azido-ATP/ADP nucleotide trapping in membranes from transfected cells; assay type: binding; settings: 50 μM all-trans retinal, 5 μM 8-azido-[α-32P]ATP, 37° C.
T1 construct: Membranes from transfected cells expressing either full-length ABCR (lanes 1 & 2) or co-expressing the N and C halves; expressed in transfected cells; host or cells: transfected cells (COS-1 or EBNA293)
Experimental: FIG. 7. Nucleotide trapping by ABCR and co-expressed N and C halves. A. Effect of orthovanadate on nucleotide trapping. Membranes from transfected cells were incubated with 5 μM 8-azido-[α-^32P]ATP at 37° C., washed, and tightly bound nucleotides were UV crosslinked. Lane 1, full-length ABCR; lane 2, full-length ABCR incubated with 800 μM orthovanadate; lane 3, co-expressed N and C halves; lane 4, co-expressed N- and C-halves incubated with 800 μM orthovanadate. B. Effect of temperature and retinal on nucleotide trapping. Lane 1, full-length ABCR labeled at 0° C.; lane 2, full-length ABCR labeled at 37° C.; lane 3, full-length ABCR labeled at 37° C. in the presence of 50 μM all-trans retinal; lane 4, co-expressed N and C halves labeled at 0° C.; lane 5, co-expressed N and C halves labeled at 37° C.; lane 6, co-expressed N and C halves labeled at 37° C. in the presence of 50 μM all-trans retinal.
8-Azido-ATP Trapping—Membranes were incubated with 5 μM 8-azido-[α-^32P]ATP in 50 μl of labeling buffer with or without 800 μM sodium orthovanadate for 10 min at 37° C. All-trans retinal and 50 μM DTT were added where indicated. Binding was stopped by the addition of ice-cold 20 mM Tris-HCl, pH 7.4, the membranes were collected by centrifugation and washed one more time. Samples exposed to orthovanadate were washed in the presence of 800 μM orthovanadate. […]

full-length ABCR = full-length ABCR (Homo sapiens, UniProt P78363); test: Retinal-stimulated ATPase activity of purified protein reconstituted in lipid vesicles; assay type: biochemical; set-up: Membranes from transfected cells expressing either full-length ABCR (lanes 1 & 2) or co-expressing the N and C halves; expressed in transfected cells; host or cells: transfected cells (COS-1 or EBNA293); settings: expressed in COS-1 cells, purified on Rim 3F4 column, 50 μM [α32P]ATP
Experimental: Membranes (from two 10 cm dishes) were solubilized in 0.5 ml of 1% Triton-X100 in Buffer A (140 mM NaCl, 20 mM Tris-HCl, pH 7.4) for 20 min on ice. For ATPase assays, the membrane preparation step was omitted and the cell suspension was solubilized directly in Buffer B (10 mg/ml soybean phospholipids, 10% glycerol, 1 mM dithiothreitol, 100 mM NaCl, 3 mM MgCl2, 50 mM NaHEPES, pH 7.4) containing 18 mM CHAPS. The supernatant after a 10 min centrifugation at 40,000 rpm (TLA100.4 rotor) was mixed with 50 μl Rim3F4 Sepharose 2B for 1 h at 4° C. The beads were washed 6 times in Buffer A containing 0.2% Triton X-100 or Buffer B containing 10 mM CHAPS and eluted with 4% SDS (for electrophoresis) or 0.2 mg/ml Rim3F4 peptide (for reconstitution and determination of ATPase activity). […]
ATPase activity was measured as described previously (Ahn, J., Wong, J. T., and Molday, R. S. (2000) J Biol Chem 275(27), 20399-405) using 50 μM [α^32P]ATP and thin layer chromatography. The all-trans retinal concentration was determined spectrophotometrically (λ383 nm=42.88 mM^−1 cm^−1). […]
ATPase Activity of Expressed N and C Halves—The basal and retinal activated ATPase activity of full-length ABCR and the N and C halves individually or co-expressed in COS-1 cells was determined after immunoaffinity purification and reconstitution into lipid vesicles. […]

Sequence of full-length ABCR (P78363 whole entry): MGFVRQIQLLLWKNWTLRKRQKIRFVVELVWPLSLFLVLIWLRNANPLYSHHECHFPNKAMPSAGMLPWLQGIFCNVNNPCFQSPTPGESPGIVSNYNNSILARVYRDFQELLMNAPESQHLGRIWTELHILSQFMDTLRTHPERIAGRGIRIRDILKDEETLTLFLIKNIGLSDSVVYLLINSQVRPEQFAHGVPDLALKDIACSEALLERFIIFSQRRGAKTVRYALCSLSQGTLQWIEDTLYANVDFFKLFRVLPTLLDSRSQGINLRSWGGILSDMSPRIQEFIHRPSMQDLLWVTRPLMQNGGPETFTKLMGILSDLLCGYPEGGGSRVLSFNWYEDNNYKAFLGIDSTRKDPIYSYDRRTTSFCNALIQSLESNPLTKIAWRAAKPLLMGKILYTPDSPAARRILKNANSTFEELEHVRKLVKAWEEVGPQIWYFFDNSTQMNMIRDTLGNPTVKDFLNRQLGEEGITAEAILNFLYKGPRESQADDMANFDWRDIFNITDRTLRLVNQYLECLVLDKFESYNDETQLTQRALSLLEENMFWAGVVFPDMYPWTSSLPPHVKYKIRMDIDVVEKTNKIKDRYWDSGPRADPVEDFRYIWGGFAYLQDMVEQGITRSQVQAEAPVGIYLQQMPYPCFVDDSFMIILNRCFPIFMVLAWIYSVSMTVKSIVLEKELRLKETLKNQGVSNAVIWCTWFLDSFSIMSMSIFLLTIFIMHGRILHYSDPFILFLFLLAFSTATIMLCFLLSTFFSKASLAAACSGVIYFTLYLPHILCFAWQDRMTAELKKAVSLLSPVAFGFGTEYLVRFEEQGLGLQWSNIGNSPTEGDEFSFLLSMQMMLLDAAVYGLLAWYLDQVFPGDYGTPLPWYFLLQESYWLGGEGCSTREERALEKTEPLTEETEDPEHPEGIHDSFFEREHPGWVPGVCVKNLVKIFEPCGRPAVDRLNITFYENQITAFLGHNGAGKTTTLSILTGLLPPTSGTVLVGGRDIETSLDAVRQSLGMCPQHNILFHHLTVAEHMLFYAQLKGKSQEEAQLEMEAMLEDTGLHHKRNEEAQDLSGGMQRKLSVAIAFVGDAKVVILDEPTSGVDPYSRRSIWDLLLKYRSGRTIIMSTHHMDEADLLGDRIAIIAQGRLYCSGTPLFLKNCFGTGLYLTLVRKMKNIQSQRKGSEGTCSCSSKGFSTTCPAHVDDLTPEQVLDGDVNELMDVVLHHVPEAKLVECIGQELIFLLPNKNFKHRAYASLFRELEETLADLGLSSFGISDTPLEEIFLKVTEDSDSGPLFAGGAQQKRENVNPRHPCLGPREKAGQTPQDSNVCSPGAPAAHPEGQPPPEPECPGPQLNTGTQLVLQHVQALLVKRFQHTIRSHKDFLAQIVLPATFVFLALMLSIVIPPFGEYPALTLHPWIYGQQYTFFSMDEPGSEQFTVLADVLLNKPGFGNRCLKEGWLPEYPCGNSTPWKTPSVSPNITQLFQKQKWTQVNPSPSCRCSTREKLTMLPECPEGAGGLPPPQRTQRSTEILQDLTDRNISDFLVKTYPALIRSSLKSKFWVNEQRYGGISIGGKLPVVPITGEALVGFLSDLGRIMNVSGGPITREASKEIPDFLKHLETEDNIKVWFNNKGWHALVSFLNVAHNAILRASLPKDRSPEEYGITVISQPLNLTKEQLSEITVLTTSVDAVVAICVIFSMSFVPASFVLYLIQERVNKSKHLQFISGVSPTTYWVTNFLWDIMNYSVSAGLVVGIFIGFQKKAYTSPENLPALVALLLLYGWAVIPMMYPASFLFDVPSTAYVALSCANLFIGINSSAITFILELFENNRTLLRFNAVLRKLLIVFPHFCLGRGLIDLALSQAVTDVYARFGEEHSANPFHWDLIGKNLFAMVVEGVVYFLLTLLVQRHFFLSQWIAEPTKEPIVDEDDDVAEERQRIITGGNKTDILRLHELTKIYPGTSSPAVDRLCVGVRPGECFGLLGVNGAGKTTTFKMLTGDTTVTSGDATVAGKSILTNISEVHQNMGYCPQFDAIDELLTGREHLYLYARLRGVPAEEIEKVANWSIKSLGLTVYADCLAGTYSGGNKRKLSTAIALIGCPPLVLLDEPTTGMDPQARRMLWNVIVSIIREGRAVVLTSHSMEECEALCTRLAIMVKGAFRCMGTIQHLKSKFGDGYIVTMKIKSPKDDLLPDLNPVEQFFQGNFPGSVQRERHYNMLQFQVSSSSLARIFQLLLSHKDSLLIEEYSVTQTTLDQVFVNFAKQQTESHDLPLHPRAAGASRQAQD
T1 sequence (P78363 whole entry): as above

stimulation of ATPase activity (full-length ABCR): 1-2 fold
Compound: CC1=C(/C=C/C(C)=C/C=C/C(C)=C/C=O)C(C)(C)CCC1 [all-trans retinal]
effect on 8-azido ATP/ADP trapping (ABCR): not dependent on sodium orthovanadate or influenced
